“Also recorded” adds a separate entry of the source.
What was measured:
[1] = tested on: heart of T. molitor; details: cited from earlier work
Excerpt: The most prominent ion signal (1257.8) in both the brain and CC/CA corresponds to leucomyosuppressin, a member of the FMRFamide family first characterized from the cockroach L. maderae ([Holman et al. 1986a]). […] These peptides are pleiotropic as their effects on insects include the modulation of muscle contractile activity ([Predel and Nachman 2001]; [Rosinski 1995]).

[2] = tested on: semi-isolated Z. atratus heart; details: ref Skonieczna and Rosinski 2004; cited from earlier work
Excerpt: The most prominent ion signal (1257.8) in both the brain and CC/CA corresponds to leucomyosuppressin, a member of the FMRFamide family first characterized from the cockroach L. maderae ([Holman et al. 1986a]).

[3] = tested on: semi-isolated Z. atratus heart; test: semi-isolated heart bioassay (video microscopy, continuously perfused heart); set-up: species or system Zophobas atratus; details: synthetic peptide 1×10^-9 M in saline, semi-isolated adult Z. atratus heart, n = 3–8 (Figure 8)
Description: All HPLC fractions were re-suspended in 100 µl of T. molitor saline (274 mM NaCl, 19 mM KCl, 9 mM CaCl2, 5 mM glucose, and 5 mM HEPES, pH 7.0), to a concentration of 1 brain or CC/CA equivalent, and assayed in vitro using a semi-isolated Z. atratus heart prepared according to Gäde and Rosinski ([1990]). In the bioassay, the video microscopy technique and the computer-based method of data acquisition and analysis were used to study the action of the fractions on continuously perfused heart preparations as described previously ([Marciniak et al. 2008]). The activities of tested fractions are presented as percentage changes in the control frequency of the heart contraction.
Synthetic peptides were dissolved in saline to yield a stock solution of 1 mM and were stored at -30 °C. Working dilutions (1×10^-9 M) were made from the stock solution in saline.

[4] = tested on: heart muscles in beetles; details: synthetic peptide; ref Rosinski 1995; cited from earlier work
Description: All HPLC fractions were re-suspended in 100 µl of T. molitor saline (274 mM NaCl, 19 mM KCl, 9 mM CaCl2, 5 mM glucose, and 5 mM HEPES, pH 7.0), to a concentration of 1 brain or CC/CA equivalent, and assayed in vitro using a semi-isolated Z. atratus heart prepared according to Gäde and Rosinski ([1990]). In the bioassay, the video microscopy technique and the computer-based method of data acquisition and analysis were used to study the action of the fractions on continuously perfused heart preparations as described previously ([Marciniak et al. 2008]). The activities of tested fractions are pre ... || An AKH (Tenmo-AKH: pELNFSPNWa) had previously been identified from the CC of both T. molitor and Z. atratus (formerly Z. rugipes) ([Gäde and Rosinski 1990]), whereas two AKHs (pELNFSTDWa and pELNFTPNWa) are present in T. castaneum ([Audsley and Weaver, 2008]; [Gäde et al 2008]). From mass analysis of Z. atratus CC, only AKH was identified by the precursor ions 1009.7 and 1025.7, which represent the Na^+ and K^+ adducts of Temno-AKH, and its sequence was confirmed by MALDI-PSD. The protonated form of AKH is not usually detected using MALDI-TOF MS ([Audsley and Weaver, 2003]). Fraction 31 from t ...

leucomyosuppressin [LMS]
cardioinhibition in T. molitor ([1]; ref Skonieczna and Rosinski 2004): dose-dependent reversible cardioinhibition | cardioinhibition in Z. atratus [2]: dose-dependent reversible cardioinhibition | inhibition of heart contractile activity (percentage change in the control frequency of heart contraction) ([3]; means ± SEM): 30%

GRWGGFA [Trica-NVP-4 trunc, truncated NVP-like peptide-4 (GRWGGFA)]
chronotropic effect on heart contractile activity (in words) [3]: no effect on heart activity | chronotropic effect on heart contractile activity (in words) ([3]; listed as NVP-4 trunc.): no effect on heart contractile activity

Proctolin
effect on beetle heart contractions [4]: stimulates contractions of the heart muscles

pETSFTPRLa [Lem-PK]
stimulatory activity on the heart of T. molitor ([1]; ref Rosinski 1995): very little stimulatory activity

SPPFAPRLa [Pyrokinin 2]
chronotropic effect on heart contractile activity (in words) [3]: minor positive chronotropic effect | chronotropic effect on heart contractile activity (in words) ([3]; listed as PK 2): neither synthetic PK 2 nor the corresponding HPLC fraction (25) of CC/CA extract are active

PFCNAFTGCa [CCAP, crustacean cardioactive peptide]
effect on contractions of the myocardium of T. molitor ([1]; ref Furuya et al. 1993): stimulate contractions of the myocardium

pELNFSPNWa [AKH]
effect on beetle heart contractions [4]: positive chronotropic effects

pETSDDYGHLRFa [sulfakinin 1]
chronotropic effect on heart contractile activity (in words) [3]: Neither sulfakinin 1 nor fraction 22 from the brain had any significant action; also recorded: no significant effects

From article PMC3016957, “Identification of Myotropic Neuropeptides from the Brain and Corpus Cardiacum-Corpus Allatum Complex of the Beetle, Zophobas atratus” (Journal of Insect Science, 2010)
